{
  "source": "patent US12421224B2",
  "about": "(BIOGEN MA INC., priority 2019, dated 2025)",
  "note": "pIC50: −log10 of the molar value.",
  "data": [
    {"molecular_target": "T1, Recombinant full length human OGA enzyme (Homo sapiens, UniProt O60502)", "T1 construct": "Recombinant full length human OGA enzyme; purchased Origene", "T1 sequence (O60502 1-916)": "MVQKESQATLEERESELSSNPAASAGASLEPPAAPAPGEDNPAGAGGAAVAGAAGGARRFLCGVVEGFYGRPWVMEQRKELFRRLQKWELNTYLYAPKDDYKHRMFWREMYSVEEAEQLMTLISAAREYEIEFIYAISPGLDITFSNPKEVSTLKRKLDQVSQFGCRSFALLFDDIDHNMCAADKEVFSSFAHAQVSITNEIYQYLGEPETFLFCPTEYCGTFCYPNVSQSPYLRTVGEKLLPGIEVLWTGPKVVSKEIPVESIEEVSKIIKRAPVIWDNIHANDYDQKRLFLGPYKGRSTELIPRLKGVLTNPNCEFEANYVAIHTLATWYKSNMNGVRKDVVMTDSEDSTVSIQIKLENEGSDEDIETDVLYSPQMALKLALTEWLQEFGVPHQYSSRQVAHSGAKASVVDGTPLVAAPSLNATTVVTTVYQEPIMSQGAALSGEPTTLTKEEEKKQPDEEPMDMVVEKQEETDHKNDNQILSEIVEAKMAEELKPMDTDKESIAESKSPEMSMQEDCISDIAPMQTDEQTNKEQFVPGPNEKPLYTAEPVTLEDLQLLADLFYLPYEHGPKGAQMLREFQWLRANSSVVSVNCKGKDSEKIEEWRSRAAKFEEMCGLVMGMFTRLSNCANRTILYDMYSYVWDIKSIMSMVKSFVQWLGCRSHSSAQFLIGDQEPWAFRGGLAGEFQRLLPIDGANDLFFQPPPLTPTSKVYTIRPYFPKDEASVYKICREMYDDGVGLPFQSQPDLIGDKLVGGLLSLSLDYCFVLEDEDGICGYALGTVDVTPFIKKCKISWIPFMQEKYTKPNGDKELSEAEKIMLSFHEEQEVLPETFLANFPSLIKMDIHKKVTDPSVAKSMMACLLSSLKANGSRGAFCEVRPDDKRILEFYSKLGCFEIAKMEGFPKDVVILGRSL", "experiment": "OGA Enzyme Inhibition Biochemical Assay", "conditions": "1 nM OGA, 100 μM 4-MUGlcNAc (Km), pH 6.4, 90 minutes at room temperature, 10-point dose-response starting from 20 μM", "description": "OGA Enzyme Inhibition Biochemical Assay\nRecombinant full length human OGA enzyme was purchased from Origene. 4-MUGlCNAc substrate was purchased from Sigma. All other reagents were purchased from Sigma or Fisher. Assay buffer consists of the Mcllvaine buffer system, pH 6.4 (0.2M Na2HPO4 mixed with 0.1M citric acid) and 0.01% BSA. Reactions consist of 1 nM OGA, 100 μM 4-MUGlcNAc (Km), and compound in a final volume of 10 μl. Reactions were incubated for 90 minutes at room temperature and quenched with […] of 3M glycine, pH 10 and read on a Perkin Elmer Envision plate reader (Ex: 355 nm/Em: 460 nm). Compounds were tested with a 10-point dose-response starting from 20 μM with a 4-fold dilution. Data was fit using GraphPad Prism using a 4-parameter fit with variable slope.", "values": [
      {"compound": "CC(=O)Nc1ncc(CN2C[C@H](Oc3ccc(C#N)cn3)[C@H]2C)s1", "note": "[Example 2-32, N-(5-(((2R,3S)-3-((5-cyanopyridin-2-yl)oxy)-2-methylazetidin-1-yl)methyl)thiazol-2-yl)acetamide]", "pIC50": 6.01},
      {"compound": "CC(=O)Nc1ncc(CN2C[C@H](Oc3ncc(F)cn3)[C@H]2C)s1", "note": "[Example 2-33, N-(5-(((2R,3S)-3-((5-fluoropyrimidin-2-yl)oxy)-2-methylazetidin-1-yl)methyl)thiazol-2-yl)acetamide]", "pIC50": 6.41},
      {"compound": "CC(=O)Nc1ncc(CN2CC(NCc3cc(C)nc(C)c3)C2)s1", "note": "[Example 3-1, N-(5-((3-(((2,6-dimethylpyridin-4-yl)methyl)amino)azetidin-1-yl)methyl)thiazol-2-yl)acetamide]", "pIC50": 7.04},
      {"compound": "COc1cc(CNC2CN(Cc3cnc(NC(C)=O)s3)C2)ccn1", "note": "[Example 3-2, N-(5-((3-(((2-methoxypyridin-4-yl)methyl)amino)azetidin-1-yl)methyl)thiazol-2-yl)acetamide]", "pIC50": 6.68},
      {"compound": "CCOc1cc(CC2CN(Cc3cnc(NC(C)=O)s3)C2)ccn1", "note": "[Example 4-1, N-(5-((3-((2-ethoxypyridin-4-yl)methyl)azetidin-1-yl)methyl)thiazol-2-yl)acetamide]", "pIC50": 7.33},
      {"compound": "CC(=O)Nc1ncc(CN2CC(Cc3ccccc3)C2)s1", "note": "[Example 4-2, N-(5-((3-benzylazetidin-1-yl)methyl)thiazol-2-yl)acetamide]", "pIC50": 6.24},
      {"compound": "CC(=O)Nc1ncc(CN2CC(c3ncc(F)cn3)C2)s1", "note": "[Example 5-1]", "pIC50": 6.46},
      {"compound": "CC(=O)Nc1ncc(CN2CC(c3ncnc4sccc34)C2)s1", "note": "[Example 5-2]", "pIC50": 6.71},
      {"compound": "N-(5-43-(((5-methyl-1,2,4-oxadiazol-3-yl)methyl)amino)azetidin-1-yl)methyl)thiazol-2-yl)acetamide [Example 3-3]", "pIC50": 6.05}
    ]}
  ]
}
